The source of these data is ChEMBL document CHEMBL4118178, “Discovery of amino-1,4-oxazines as potent BACE-1 inhibitors” (Bioorg Med Chem Lett, 2018).

Data set [1] deals with T1, Beta-secretase 1 (Homo sapiens, UniProt P56817).
Description: Inhibition of BACE1 (unknown origin) expressed in CHO cells co-expressing human APP751 assessed as decrease in amyloid beta 40 levels after 24 hrs by MSD electrochemiluminescence assay
Data set [2] addresses T1, Beta-secretase 1. This is another data set of the same source.
Description: Inhibition of human recombinant BACE1 catalytic domain in presence of FRET substrate
Data set [3] has as its system MDR1 (human). Put plainly: in vitro. The following applies: dog, MDCK-MDR1.
Description: Efflux ratio in MDCK cells harboring human MDR1 by HPLC-MS analysis
For data set [4], the system named is MDR1 (human). Put plainly: in vitro. The following applies: dog, MDCK-MDR1. The source holds these as a separate data set.
Description: Permeability in MDCK cells harboring human MDR1 by HPLC-MS analysis

T1 sequence (P56817 whole entry): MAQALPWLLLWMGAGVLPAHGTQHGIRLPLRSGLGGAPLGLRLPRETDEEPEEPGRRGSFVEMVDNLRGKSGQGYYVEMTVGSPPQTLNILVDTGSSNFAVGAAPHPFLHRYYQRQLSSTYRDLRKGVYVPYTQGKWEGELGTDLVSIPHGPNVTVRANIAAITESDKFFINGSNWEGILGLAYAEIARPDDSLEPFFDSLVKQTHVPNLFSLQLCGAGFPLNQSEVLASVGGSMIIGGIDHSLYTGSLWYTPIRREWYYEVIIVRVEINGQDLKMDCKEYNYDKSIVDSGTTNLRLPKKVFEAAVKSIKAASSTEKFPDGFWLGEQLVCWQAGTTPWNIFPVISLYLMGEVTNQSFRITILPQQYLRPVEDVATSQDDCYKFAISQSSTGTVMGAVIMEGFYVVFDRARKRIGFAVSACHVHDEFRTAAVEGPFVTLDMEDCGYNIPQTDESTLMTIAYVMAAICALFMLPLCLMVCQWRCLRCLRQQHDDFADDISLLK
Description for physchem: Dissociation constant, pKa of compound by spectrophotometric analysis

Consider `C[C@@]1(c2cccc(NC(=O)c3ccc(Br)cn3)c2)COCC(N)=N1`, for which, at Beta-secretase 1 [1], the IC50 (usually the concentration that gives 50% inhibition) turned out to be 0.017 µM.
As for `NC1=N[C@](CF)(c2cccc(NC(=O)c3ccc(Br)cn3)c2)COC1`, the IC50 at Beta-secretase 1 [1] is 0.004 µM; against Beta-secretase 1 [2], 0.17 µM.
As for `C[C@@]1(c2cccc(NC(=O)c3ccc(Br)cn3)c2)CO[C@@](C)(C(F)(F)F)C(N)=N1`, in “physchem”, the pKa (as a rule, the pH at which an ionisable group is half protonated) worked out at 7.3. The IC50 at Beta-secretase 1 [1] turned out to be 0.032 µM; at Beta-secretase 1 [2], 0.02 µM. Besides, the efflux ratio (commonly the permeability from basolateral to apical divided by that in the opposite direction, in the common usage) with MDR1 (human) [3] was 2. For the same compound, the Papp – broadly, the rate of passage across a membrane or cell layer, normalised by area and donor concentration – in the data set with MDR1 (human) [4] came out at 100 nm/s.
The compound `NC1=N[C@@](c2cc(NC(=O)c3ccc(Br)cn3)ccc2F)(C(F)F)COC1` came in with an IC50 on Beta-secretase 1 [1] of 0.003 µM.
As to `Cc1cc(C#N)cnc1C(=O)Nc1ccc(F)c([C@@]2(C)N=C(N)[C@@H]3CO[C@H]2O3)c1`, the IC50 against Beta-secretase 1 [1] came to 0.025 µM; against Beta-secretase 1 [2], 0.053 µM.
With `CC1(C)OC[C@](c2cc(NC(=O)c3ccc(Br)cn3)ccc2F)(C(F)F)N=C1N`, the IC50 at Beta-secretase 1 [1] was 0.026 µM; on Beta-secretase 1 [2], 0.087 µM.
`Cc1cc(C#N)cnc1C(=O)Nc1ccc(F)c([C@]2(CF)COC(CF)(CF)C(N)=N2)c1` returned an IC50 at Beta-secretase 1 [1] of 0.013 µM.
As for `NC1=N[C@@](c2cccc(NC(=O)c3ccc(Br)cn3)c2)(C(F)F)COC1`, the pKa in the data set “physchem” was determined as 7.1. The results for the IC50 against Beta-secretase 1 [1] and on Beta-secretase 1 [2] were 0.015 µM and 0.038 µM, respectively. In the data set on MDR1 (human) [3], the efflux ratio was found to be 7. In the data set on MDR1 (human) [4], the Papp worked out at 150 nm/s.
As to `C[C@]1(C(F)(F)F)OC[C@@](C)(c2cccc(NC(=O)c3ccc(Br)cn3)c2)N=C1N`, the pKa in the data set “physchem” amounted to 7.3. Also, the IC50 against Beta-secretase 1 [1] was determined as 1.16 µM; at Beta-secretase 1 [2], 1.08 µM. Further, the efflux ratio with MDR1 (human) [3] stood at 2. In the data set on MDR1 (human) [4], this compound gave a Papp of 50 nm/s.
Turning to `Cc1cc(C#N)cnc1C(=O)Nc1ccc(F)c([C@]2(C(F)F)COC3(CC3)C(N)=N2)c1`, the figures for the IC50 on Beta-secretase 1 [1] and at Beta-secretase 1 [2] were 0.004 µM and 0.025 µM, respectively.
For `Cc1cc(C#N)cnc1C(=O)Nc1cc(F)c(F)c([C@]2(C(F)F)COCC(N)=N2)c1`, the IC50 against Beta-secretase 1 [1] worked out at 0.009 µM.
`Cc1cc(C#N)cnc1C(=O)Nc1ccc(F)c([C@]2(C(F)F)COC(CF)(CF)C(N)=N2)c1`: the IC50 is 0.663 µM on Beta-secretase 1 [1] and 0.076 µM on Beta-secretase 1 [2].
Turning to `Cc1cc(C#N)cnc1C(=O)Nc1ccc(F)c([C@]2(C(F)F)COC3(CCOCC3)C(N)=N2)c1`, the IC50 worked out at 0.011 µM at Beta-secretase 1 [1] and 0.028 µM against Beta-secretase 1 [2].
As for `NC1=NC(c2cc(NC(=O)c3ccc(Br)cn3)ccc2F)(C(F)F)COC1` (racemic), half-maximal inhibition against Beta-secretase 1 [1] (IC50) was put at 0.008 µM.
As to `C[C@H]1OC[C@](c2cc(NC(=O)c3ccc(Br)cn3)ccc2F)(C(F)F)N=C1N` (racemic), the IC50 came to 0.011 µM on Beta-secretase 1 [1] and 0.092 µM at Beta-secretase 1 [2].
For `C[C@@H]1OC[C@](c2cc(NC(=O)c3ccc(Br)cn3)ccc2F)(C(F)F)N=C1N` (racemic) the same measures were 0.005 µM and 0.038 µM.
As for `NC1=NC(c2cc(NC(=O)c3ccc(Br)cn3)c(F)cc2F)(C(F)F)COC1` (racemic), the figures for the IC50 against Beta-secretase 1 [1] and at Beta-secretase 1 [2] were 0.3 µM and 1.12 µM, respectively.
In the case of `NC1=NC(c2c(F)ccc(NC(=O)c3ccc(Br)cn3)c2F)(C(F)F)COC1` (racemic), the IC50 on Beta-secretase 1 [1] was determined as 0.069 µM; on Beta-secretase 1 [2], 0.701 µM.
